Laboratory results taken from patent US20100022491A1, “4-HYDROXY-2-OXO-2,3-DIHYDRO-1,3-BENZOTHIAZOL-7YL COMPOUNDS FOR MODULATION OF B2-ADRENORECEPTOR ACTIVITY” (ASTRAZENECA AB, priority 2006, published 2010).
Structures can show the parent of a compound that is named as a salt.

How the values were obtained:
Adrenergic β2 = molecular target: T1, Adrenergic β2 (Homo sapiens, UniProt P07550); test: Adrenergic β2 mediated cAMP production in H292 cells; assay type: cell-based; conditions: for EC50: H292 cells, cAMP by AlphaScreen, 60 minutes at room temperature, rolipram 300 μM, read-out: β2 pEC50 (converted); for β2 Int Act: Intrinsic Activity as a fraction relative to the maximum activity determined for formoterol
T1 construct: Adherent H292 cells were removed from tissue culture flasks; endogenous in cells; host or cells: H292 cells
In short: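 cAMP accumulation in adherent H292 cells, measured by AlphaScreen and calibrated with cAMP standards. Compounds incubated 60 min at room temperature after 10 min rolipram (final 300 μM; vehicle 1.6% DMSO). pEC50 and intrinsic activity, as a fraction of formoterol's maximum, from four-parameter logistic fit.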

[1] = molecular target: T2, recombinant human Dopamine Subtype D2s receptors (Homo sapiens, UniProt P14416); test: Dopamine D2 selectivity binding assay ([3H]-spiperone); conditions: inhibition of [3H]-spiperone (0.16 nM) binding; read-out: D2 bind pIC50 (converted)
T2 construct: purchased Perkin Elmer
In short: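 Displacement of [3H]-spiperone (0.16 nM final) from human D2s receptor membranes in pH 7.4 HEPES buffer over 2 h at room temperature, then filtration and scintillation counting. Specific binding taken as vehicle minus 10 μM haloperidol wells. Potency given as pIC50 from a four-parameter logistic curve.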

T2 sequence (P14416 1-414 isoform P14416-2): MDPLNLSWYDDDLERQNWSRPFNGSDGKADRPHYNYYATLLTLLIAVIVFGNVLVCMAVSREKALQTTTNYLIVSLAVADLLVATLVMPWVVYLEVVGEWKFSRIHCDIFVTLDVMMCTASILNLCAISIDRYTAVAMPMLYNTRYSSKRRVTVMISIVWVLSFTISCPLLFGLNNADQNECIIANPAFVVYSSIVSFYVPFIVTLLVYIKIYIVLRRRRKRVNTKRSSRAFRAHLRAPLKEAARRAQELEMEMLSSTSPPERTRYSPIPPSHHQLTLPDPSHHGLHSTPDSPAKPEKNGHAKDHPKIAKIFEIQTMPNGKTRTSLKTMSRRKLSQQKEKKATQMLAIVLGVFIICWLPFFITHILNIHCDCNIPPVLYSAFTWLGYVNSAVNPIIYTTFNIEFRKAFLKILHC
T1 sequence (P07550 whole entry): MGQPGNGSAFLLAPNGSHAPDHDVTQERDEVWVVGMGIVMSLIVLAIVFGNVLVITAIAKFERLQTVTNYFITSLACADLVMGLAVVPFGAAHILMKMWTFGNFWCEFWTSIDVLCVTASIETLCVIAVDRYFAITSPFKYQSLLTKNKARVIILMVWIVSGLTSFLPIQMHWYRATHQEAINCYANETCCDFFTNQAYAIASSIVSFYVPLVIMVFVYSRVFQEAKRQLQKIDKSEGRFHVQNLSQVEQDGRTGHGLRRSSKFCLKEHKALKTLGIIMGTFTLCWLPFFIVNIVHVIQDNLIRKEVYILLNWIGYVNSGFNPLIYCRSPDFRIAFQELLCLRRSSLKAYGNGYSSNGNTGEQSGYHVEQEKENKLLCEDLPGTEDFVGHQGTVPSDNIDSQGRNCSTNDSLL

Question: Which EC50 (Adrenergic β2) does the source give for `O=C(CCNCCc1ccc(O)c2[nH]c(=O)sc12)N(CCNCCc1ccc(O)c2[nH]c(=O)sc12)C1CCCCCC1` [Example 87, bis-trifluoroacetic acid salt] here?
Answer: The EC50 was 3.16 nM.

Question: And the “β2 Int Act” value (Adrenergic β2)?
Answer: Its value is 0.72.

Question: What about the IC50 [1] of the same compound?
Answer: The IC50 was 39.8 nM.

Question: `O=C(CCNCCc1cccc(O)c1)N(CCNCCc1ccc(O)c2[nH]c(=O)sc12)C1CCCCCCC1` [Example 90, N^1-Cyclooctyl-N^1-(2-{[2-(4-hydroxy-2-oxo-2,3-dihydro-1,3-benzothiazol-7-yl)ethyl]amino}ethyl)-N^3-[2-(3-hydroxyphenyl)ethyl]-β-alaninamide bis-trifluoroacetic acid salt] was tested. Which EC50 (Adrenergic β2) did it give?
Answer: The EC50 was 3.98 nM.

Question: What about the “β2 Int Act” value (Adrenergic β2) of the same compound?
Answer: Its value is 0.71.

Question: And the IC50 [1]?
Answer: The IC50 was 79.4 nM.

Question: For `O=C(CCNCCc1ccccc1)N(CCNCCc1ccc(O)c2[nH]c(=O)sc12)C1CCCCC1` [Example 5, N-Cyclohexyl-N-(2-{[2-(4-hydroxy-2-oxo-2,3-dihydro-1,3-benzothiazol-7-yl)ethyl]amino}ethyl)-N^3-(2-phenylethyl)-β-alaninamide bis-trifluoroacetic acid salt], which EC50 (Adrenergic β2) is on record?
Answer: The EC50 was 2.51 nM.

Question: What about the “β2 Int Act” value (Adrenergic β2) of the same compound?
Answer: Its value is 0.83.

Question: And the IC50 [1]?
Answer: Its IC50 is 398 nM.

Question: Which EC50 (Adrenergic β2) does the source give for `O=C(CCNCCc1ccccc1)N(CCNCCc1ccc(O)c2[nH]c(=O)sc12)C1CCC(F)(F)CC1` [Example 4, N-(4,4-Difluorocyclohexyl)-N-(2-{[2-(4-hydroxy-2-oxo-2,3-dihydro-1,3-benzothiazol-7-yl)ethyl]amino}ethyl)-N^3-(2-phenylethyl)-β-alaninamide bis-trifluoroacetic acid salt] here?
Answer: The EC50 was 1 nM.

Question: And the “β2 Int Act” value (Adrenergic β2)?
Answer: Its value is 0.79.

Question: And the IC50 [1]?
Answer: The IC50 was 2000 nM.

Question: For `Cc1cccc(CCNCCC(=O)N(CCNCCc2ccc(O)c3[nH]c(=O)sc23)C2CCCCCC2)c1` [Example 85, N^1-Cycloheptyl-N^1-(2-{[2-(4-hydroxy-2-oxo-2,3-dihydro-1,3-benzothiazol-7-yl)ethyl]amino}ethyl)-N^3-[2-(3-methylphenyl)ethyl]-β-alaninamide bis-trifluoroacetic acid salt], which EC50 (Adrenergic β2) is on record?
Answer: Its EC50 is 6.31 nM.

Question: What about the “β2 Int Act” value (Adrenergic β2) of the same compound?
Answer: The value was 0.65.

Question: What about the IC50 [1] of the same compound?
Answer: Its IC50 is 79.4 nM.

Question: For `CC1(C)CCC(N(CCNCCc2ccc(O)c3[nH]c(=O)sc23)C(=O)CCNCCc2cccc(O)c2)CC1` [Example 91, N^1-(4,4-Dimethylcyclohexyl)-N^1-(2-{[2-(4-hydroxy-2-oxo-2,3-dihydro-1,3-benzothiazol-7-yl)ethyl]amino}ethyl)-N^3-[2-(3-hydroxyphenyl)ethyl]-β-alaninamide bis-trifluoroacetic acid salt], which EC50 (Adrenergic β2) is on record?
Answer: Its EC50 is 3.98 nM.

Question: And the “β2 Int Act” value (Adrenergic β2)?
Answer: The value was 0.75.

Question: And the IC50 [1]?
Answer: The IC50 was 39.8 nM.

Question: Which EC50 (Adrenergic β2) does the source give for `O=C(CCNCCc1ccc2c(c1)OCCO2)N(CCNCCc1ccc(O)c2[nH]c(=O)sc12)C1CCCCCC1` [Example 88, N-Cycloheptyl-N^3-[2-(2,3-dihydro-1,4-benzodioxin-6-yl)ethyl]-N^1-(2-{[2-(4-hydroxy-2-oxo-2,3-dihydro-1,3-benzothiazol-7-yl)ethyl]amino}ethyl)-β-alaninamide bis-trifluoroacetic acid salt] here?
Answer: The EC50 was 25.1 nM.

Question: What about the “β2 Int Act” value (Adrenergic β2) of the same compound?
Answer: The value was 0.37.

Question: And the IC50 [1]?
Answer: Its IC50 is 79.4 nM.

Question: Which EC50 (Adrenergic β2) does the source give for `COc1ccc(CCNCCC(=O)N(CCNCCc2ccc(O)c3[nH]c(=O)sc23)C2CCCCCC2)cc1OC` [Example 86, N^1-Cycloheptyl-N^3-[2-(3,4-dimethoxyphenyl)ethyl]-N^1-(2-{[2-(4-hydroxy-2-oxo-2,3-dihydro-1,3-benzothiazol-7-yl)ethyl]amino}ethyl)-β-alaninamide bis-trifluoroacetic acid salt] here?
Answer: The EC50 was 39.8 nM.

Question: And the “β2 Int Act” value (Adrenergic β2)?
Answer: Its value is 0.43.

Question: And the IC50 [1]?
Answer: The IC50 was 200 nM.

Question: Which results are given for `O=C(CCNCCc1ccc(O)c(Cl)c1)N(CCNCCc1ccc(O)c2[nH]c(=O)sc12)C1CCCCC1` [Example 89, N^3-[2-(3-chloro-4-hydroxyphenyl)ethyl]-N^1-cyclohexyl-N^1-(2-{[2-(4-hydroxy-2-oxo-2,3-dihydro-1,3-benzothiazol-7-yl)ethyl]amino}ethyl)-β-alaninamide bis-trifluoroacetic acid salt]?
Answer: EC50 (Adrenergic β2): 1.26 nM; β2 Int Act (Adrenergic β2): 0.9; IC50 [1]: 79.4 nM
